Earlier results as cited in patent US12485291B2, “Method for treatment of cholangiocarcinoma with cold atmospheric plasma and folfirinox” (Jerome Canady Research Institute for Advanced Biological …, priority 2019, dated 2025).

System: metastatic pancreatic cancer
Settings: patients with metastatic pancreatic cancer

Question: Which overall survival does the source give for `Nc1ccn([C@@H]2O[C@H](CO)[C@@H](O)C2(F)F)c(=O)n1` [gemcitabine] here?
Answer: 6.8 months
